# Residues, ends and D or L forms follow the SMILES beside them. *: point of attachment. Cbz = O=C(OCc1ccccc1)*; Boc = CC(C)(C)OC(=O)*
row,SMILES,melting point
1,CCOC(=O)c1cn(CCF)c2nc(N3CCC(NC(C)=O)C3)c(F)cc2c1=O (stereo not given),269 to 270 °C
2,C=CCNc1nc(NCC=C)c2scc(C)c2n1,77 to 80 °C
3,CCn1nc(C)c2nc(C)nc(NCCO)c21,166 to 168 °C
4,O=C(NCc1ccccc1)c1oc(=O)c2ncccc2c1-c1ccccc1,188 to 189 °C
5,NNc1cccc(F)c1[N+](=O)[O-],93 to 95 °C
6,CCC1(CCCCN2CCN(c3cccc4c3OCCO4)CC2)C(=O)Nc2ccccc21 (stereo not given),169 to 170 °C
7,OCc1ccc2c(Br)cccc2c1,76 to 77 °C
8,CNS(=O)(=O)c1cc(C(=O)c2c(C)[nH]c3ccccc23)ccc1Cl,246 °C
9,COc1ccc(-c2nc(SCC=O)sc2-c2ccc(OC)cc2)cc1,75 to 76 °C
10,CN1CCC(OC2c3cccc(Br)c3CCn3cc(-c4ccccc4)nc32)CC1 (stereo not given),83 °C
11,C#Cc1ccc2c(=O)c(C(=O)OCC)cn(-c3ccc(F)cc3)c2c1,227 to 229 °C
12,Cc1cc(OC(F)(F)F)ccc1NC(=O)c1cccc(I)c1C(=O)NC(C)CC(=O)N(C)C (stereo not given),104 °C
13,COc1ccc(C2=CCN(CCCN3c4cccc5cccc(c45)S3(=O)=O)CC2)cc1,178 °C
14,CCC(Oc1cccc2ccccc12)C(=O)OC1CC(O)C=C2C=CC(C)C(CCC3CC(O)CC(=O)O3)C21 (stereo not given),138 to 140 °C
15,COCC(O)CN1CCN(c2cc3c(cc2F)c(=O)c(C(=O)O)c2n3CCS2)CC1 (stereo not given),224 °C
16,O=c1c2c(Cc3ccc([N+](=O)[O-])cc3)n[nH]c2c2cccnc2n1-c1ccccc1,254 to 255 °C
17,CCOC(=O)c1cn(CCCl)c2nc(N3CCN(C(=O)OCC)CC3)c(F)cc2c1=O,143 to 144 °C
18,O=S(=O)(Br)c1cccs1,49 to 51 °C
19,O=c1c2c(Cl)cc(Cl)cc2n(Cc2ccccc2)c(=O)n1Cc1ccccc1,104 to 106 °C
20,COc1cc2c(cc1O)CN(C(=O)OC(C)(C)C)CC2,80 to 83 °C
21,Nc1nc(N)c(CCCC(CO)c2ccc(C(=O)N[C@@H](CCC(=O)O)C(=O)O)cc2)c(O)n1 (stereo not given in full),164 °C
22,CCNC(=NC(=Nc1ccccc1)N1CCOCC1)C(C)C,155 to 158 °C
23,Nc1nc2c(ncn2CCC(COC(=O)n2ccnc2)COC(=O)n2ccnc2)c(=O)[nH]1,> 300 °C
24,CCOC(=O)COc1ccc2c(-c3ccc(Cl)cc3)noc2c1,97 °C

row,SMILES,melting point
1,CCCCCCCCCC(O)P(=O)(O)O (stereo not given),164 °C
2,C#CCOc1ccc(C(=O)C=Cc2cccs2)c(O)c1,83 to 85 °C
3,C[C@@H](n1cnc2cc(-c3ccc(Cl)cc3)sc2c1=O)[C@](O)(Cn1cncn1)c1ccc(F)cc1F,158 to 160 °C
4,CC(C)[Si](C)(C)CCSCCCNC(=O)n1cc(F)c(=O)[nH]c1=O,122 to 123 °C
5,CCC(Sc1ccc(OC)c(Cl)c1Cl)C(=O)O (stereo not given),143 to 145 °C
6,COC(=O)C(CCSC)N(C(=O)OC(C)(C)C)C(=O)c1ccc(N)c2ccccc12 (stereo not given),131 to 132 °C
7,O=C(CS(=O)Cc1cccs1)C12CC3CC(CC(C3)C1)C2 (stereo not given),95 to 98 °C
8,COc1ccc(-c2cc(=O)n(Cc3ccccc3)nc2-c2ccc(OC)cc2)cc1,145 to 146 °C
9,Cc1ccccc1Nc1c([N+](=O)[O-])cnc2ccccc12,137 to 138 °C
10,C#CCN1C(=O)C2CC2(c2ccc(N)cc2)C1=O (stereo not given),106 to 109 °C
11,Cn1c(-c2ccc(-c3cccs3)cc2)cnc1[C@H](Cc1ccccn1)N(C=O)c1cc2cc(Cl)ccc2o1,110 to 114 °C
12,CCn1ncc2nc(C(=O)Nc3nccs3)c(-c3ccccc3)nc21,194 to 196 °C
13,COc1c(F)c(NCc2ccccc2)c(F)c(OC)c1C(=O)O,85 to 86 °C
14,CN(C)c1ccc(N(c2ccccc2)C2(c3ccc(N(C)C)cc3)OC(=O)c3cc(N(C)C)ccc32)cc1 (stereo not given),163 to 164 °C
15,Cc1ccc(S(=O)(=O)OCC2COc3ccccc3C2)cc1 (stereo not given),83 to 84 °C
16,CCCCC1NCCc2ccc(C(=O)N[C@@H](Cc3cc(F)cc(F)c3)[C@H](O)CNCc3cccc(CC)c3)cc21 (stereo not given in full),121 to 124 °C
17,CCc1[nH]nc2c1C(=O)c1c(NC(=O)NN3CCOCC3)cccc1-2,253 to 254 °C
18,CC(C)OP(=O)(/C=C/CCn1cnc2c(Cl)nc(N)nc21)OC(C)C,150 °C
19,COc1cccc(NC(=O)/C=C(\C)c2cc3cccc(OCCCC(=O)O)c3o2)c1,156 to 158 °C
20,COC(=O)C(C#N)=C(N)c1c(-c2ccccc2)noc1N,256 °C
21,CC(C)(C)Nc1nc2cc(Cl)c(Cl)cc2[nH]1,219 to 221 °C
22,CN(C)c1c(S(=O)C(F)(F)F)c(-c2ncon2)nn1-c1c(Cl)cc(C(F)(F)F)cc1Cl (stereo not given),82 to 84 °C
23,COc1cc2c3ccc(OC)c(OC)c3n(S(=O)(=O)c3ccc([N+](=O)[O-])cc3)c2cc1OC,188 to 189 °C
24,CNC(=O)c1cc(Cl)cc(Cl)c1NC(=O)c1cc(Br)nn1-c1ccccc1Cl,209 to 210 °C

row,SMILES,melting point
1,COc1ccn2c(C)c(CCc3ccc4nc(O)oc4c3)nc2c1,255 to 257 °C
2,CCn1cc(C(=O)OC)c(=O)cc1-c1ccc(N(C)C)c(C)c1,132 to 134 °C
3,CCCCCCOc1ccc(NC(=O)NCCC(C)(C)C)cc1,103 to 104 °C
4,COc1ccc(N2CCCN(/C(C)=C(/C#N)C(N)=S)CC2)cn1,159 to 161 °C
5,COc1ccccc1N1CCN(CCCCN(C(N)=O)C(C)(C)C)CC1,167 to 169 °C
6,CCCCCCCCCCCCCCOc1ccc(C(=O)OC)o1,56 to 58 °C
7,C=COCCOc1ccc(Oc2ccccc2)cc1,51 to 52 °C
8,Nc1cc(Br)cnc1CCCCNc1ncc(Cc2ccc(F)cc2)c(=O)[nH]1,146 to 148 °C
9,CCC1C(C)=NN=C(c2ccc(OC)c(O)c2)c2cc(O)c(OC)cc21 (stereo not given),143 to 145 °C
10,Cc1ncc([N+](=O)[O-])n1CCN(CCCCCCCCN(CCn1c([N+](=O)[O-])cnc1C)CCn1c([N+](=O)[O-])cnc1C)CCn1c([N+](=O)[O-])cnc1C,157 to 158 °C
11,O=C(NC1CCCn2c1nc(-c1ccncc1)cc2=O)Oc1ccccc1 (racemic),193 to 195 °C
12,CCCCc1nc(Cl)c(CC(=O)O)n1Cc1ccc([N+](=O)[O-])cc1,207 to 210 °C
13,Cc1cccc(Nc2ncnc3ccc(N)cc23)c1,205 to 206 °C
14,CCn1cc(C(=O)O)c(=O)c2cc(F)c(N3CCNC(c4cc5ccccc5o4)C3)cc21 (stereo not given),226 to 228 °C
15,O=c1n(CCCN2CC=C(c3c[nH]c4ccccc34)CC2)nc2ccccn12,173 °C
16,CNC(C)CN1CCc2c(c(=O)oc3cc(OC)ccc23)C1 (stereo not given),109 to 111 °C
17,Cc1cc2c(c(C(C)(C)C)c1)OC(=O)C2OC(=O)CCc1cc(C(C)(C)C)c(O)c(C(C)(C)C)c1 (stereo not given),151 to 154 °C
18,COc1cc(OCc2ccccn2)ccc1/C=C/C(=O)CC(=O)/C=C/c1cc2ccccc2s1,188 °C
19,COc1ccc(C2CCCCC2)cc1-c1csc(NC(=O)N2CCN(C[C@@H]3CCCN(CCC(=O)O)C3)CC2)n1,144 °C
20,N#Cc1cccn(-c2ccc(S(=O)(=O)N(CCO)CCO)cc2)c1=O,226 to 228 °C
21,O=C(O)COc1c(-c2cc(Cl)cc(Cl)c2)cc(C(=O)NCCCCCCCCc2ccccc2)cc1-c1cc(Cl)cc(Cl)c1,139 to 149 °C
22,COc1cc2cc(CO)nc(-c3cccc(Cl)c3)c2cc1OC,118 to 120 °C
23,CNC(=O)C1(CCCCCCCCO)CC2=C(C1)C(=O)C(OC)=C(OC)C2=O,120 to 123 °C
24,Oc1ccc(-c2cccc(F)c2F)cc1,132 to 134 °C

row,SMILES,melting point
1,O=S(=O)(Nc1cc(Cl)cc(Cl)c1)c1cc(Br)ccc1O,158 to 159 °C
2,CCOC(=O)C(CC(C)C)NC(=O)C(Cc1ccccc1)NC(=O)C(CCCCNC(=O)OCc1ccccc1)NC(=O)OC(C)(C)C (stereo not drawn) (Boc-Lys(Cbz)-Phe-Leu-OEt; configuration not given here),135 to 136 °C
3,CCOC(=O)c1ccc(-c2c(F)ccc([N+](=O)[O-])c2F)cc1,85 to 86.7 °C
4,Cc1c(N2CCC(N)C(C)(C)C2)c(F)cc2c(=O)c(C(=O)O)cn(C3CC3)c12 (stereo not given),195 to 198 °C
5,CC(=O)OCSc1c(F)cc(-c2c(-c3ccccc3)noc2C)cc1F,130 °C
6,COc1c(Br)csc1C(=O)O,191 to 192 °C
7,COC(=O)c1ccc2c(=O)n(CC(C)C)c(CNC(=O)OC(C)(C)C)c(-c3cccc(F)c3)c2c1,206 to 208 °C
8,COC(=O)N[C@@H](C)CNc1nccc(-c2cn(C(C)C)nc2-c2cc(Cl)cc(NS(C)(=O)=O)c2F)n1,150 to 152 °C
9,CC(C)NS(=O)(=O)c1ccc(-c2ccc3nnn(Cc4ccc5ncccc5c4)c3n2)cc1,154 to 156 °C
10,Cc1cc(-c2ccc(Cl)cc2)cn2c(C(=O)O)cnc12,228 °C
11,OCc1c(Cl)cc(Cl)cc1C(O)(Cn1ccnc1)c1ccc(Cl)cc1Cl (stereo not given),208 to 211 °C
12,O=C(O)c1ccc(C(F)(F)F)nc1C(F)(F)F,102 to 104 °C
13,CC(=O)Nc1ccc(N=O)cc1,179 to 180 °C
14,CCC(CC(=O)O)c1ccc(C(=O)OC)cc1 (stereo not given),165 to 166 °C
15,COc1ccc(-c2oc3c(C(=O)O)cccc3c(=O)c2C)cc1,266 to 267 °C
16,Cc1c(C=O)c2cnnc(OCc3ccccc3)c2n1Cc1ccccc1,147 to 149 °C
17,CCOC(=O)C(C)(NC(=O)Cc1ccc2ccccc2c1)C(=O)OCC,148 to 150 °C
18,CCOC(=O)CN(C(=O)CN1C(=O)c2ccccc2C1=O)c1ccc(Cl)c(COc2cccc3ccc(C)nc23)c1Cl,211 to 213 °C
19,C=C(C)C(=O)Nc1nc(CCC)n(Cc2ccc(-c3ccccc3-c3nnn[nH]3)cc2)c1C(=O)OCC,134 to 136 °C
20,Oc1ccc2c(c1)CCCC(c1ccccc1)=C2c1ccc(OCCCCCSCc2cccs2)cc1,178 °C
21,O=C(c1c[nH]c2cc(O)ccc12)C1CSC(c2cccnc2)N1 (stereo not given),203 to 205 °C
22,Cc1nc(N)nc(N)c1N1CCN(c2ccc(C#N)cc2)CC1,> 300 °C
23,COc1cc(C(=O)N2CCN(C(=O)/C=C(\c3ccc(F)cc3)c3cc(OC)c(OC)c(OC)c3)CC2)cc(OC)c1OC,130 to 132 °C

# From a melting point compilation (Tetko et al.; mined from patent text by program, amines drawn as free bases though some values may be those of a salt)
